Several values for one entry are separate records, joined by “and”; a condition that tells them apart may be missing. Equal values may be shown once.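 Test compounds were applied to cells in 96-well plates for 48 hours at 5 doses. GI50 marks 50% less growth. The concentration for full growth arrest is given as TGI.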 Some results are limits rather than exact numbers.

The source of these data is PubChem BioAssay (NCI).

Some test systems named below: HOP-92 NSCLC; UACC-62 melanoma; MDA-MB-231 breast; OVCAR-8 ovarian; NCI-H23 lung; IGROV1 ovarian; KM12 colon; NCI-H226 lung; 786-0 renal; SNB-19 CNS; EKVX NSCLC; SK-OV-3 ovarian; RPMI-8226 leukemia; SK-MEL-5 melanoma; NCI-H460 lung; HOP-62 NSCLC.
Common to all, as to experiment: inhibition of tumour cell growth, NCI panel, 48 h

Regarding `FC(F)(F)c1ccc2c(-c3cc[nH]c3)ccnc2c1`, the TGI with HOP-92 NSCLC, in the assay on UACC-62 melanoma, with MDA-MB-231 breast, in the assay on OVCAR-8 ovarian, in the assay with NCI-H23 lung and in the assay with IGROV1 ovarian was over 100 µM each time. Also, the TGI is over 100 µM in the assay on KM12 colon; over 100 µM in the assay with NCI-H226 lung; 32.1 µM in the assay with 786-0 renal; 58.8 µM in the assay with SNB-19 CNS; over 100 µM in the assay with EKVX NSCLC; over 100 µM in the assay with SK-OV-3 ovarian. In addition, the TGI with RPMI-8226 leukemia is 95.2 µM; in the assay on SK-MEL-5 melanoma, 43.3 µM; in the assay with NCI-H460 lung, over 100 µM; with HOP-62 NSCLC, over 100 µM.

With `NC(=O)c1ncn(C2C=CC(CP(=O)(O)O)C2)c1N` (stereo unspecified), the TGI in the assay with HOP-92 NSCLC, in the assay with UACC-62 melanoma, with MDA-MB-231 breast, in the assay on OVCAR-8 ovarian, in the assay on NCI-H23 lung and with IGROV1 ovarian was over 100 µM in each case. For the same compound, the TGI in the assay on KM12 colon, in the assay with NCI-H226 lung, in the assay on 786-0 renal, with SNB-19 CNS, in the assay with EKVX NSCLC and in the assay with SK-OV-3 ovarian was over 100 µM in each case. Moreover, the TGI in the assay with RPMI-8226 leukemia, in the assay on SK-MEL-5 melanoma, in the assay on NCI-H460 lung and in the assay on HOP-62 NSCLC was over 100 µM throughout.

On to `N=S(c1ccccc1[N+](=O)[O-])c1ccccc1[N+](=O)[O-]`, for which the TGI with HOP-92 NSCLC was 4.02 µM and 4.39 µM; in the assay with UACC-62 melanoma it was 9.13 µM and 10.2 µM; in the assay on MDA-MB-231 breast, 3.4 µM; in the assay on OVCAR-8 ovarian, 5.4 µM and 13.1 µM; with NCI-H23 lung, 6.77 µM and 11 µM; in the assay with IGROV1 ovarian, 4.49 µM and 6.5 µM. For the same compound, the TGI was 7.31 µM and 16.7 µM with KM12 colon; 12.3 µM and 30.1 µM in the assay on NCI-H226 lung; 3.93 µM and 4.67 µM in the assay with 786-0 renal; 22.5 µM and 20.9 µM with SNB-19 CNS; 11 µM and 20.8 µM in the assay with EKVX NSCLC; 17 µM and 15.7 µM in the assay on SK-OV-3 ovarian. The TGI was 4.47 µM and 18.8 µM in the assay on RPMI-8226 leukemia; 3.83 µM and 8.22 µM in the assay on SK-MEL-5 melanoma; 21.5 µM and 32 µM in the assay on NCI-H460 lung; 8.51 µM and 10.8 µM with HOP-62 NSCLC. The GI50 with NCI-H226 lung is 12.6 µM; in the assay with RPMI-8226 leukemia, 3.93 µM; in the assay with NCI-H460 lung it was 7.83 µM and 14.4 µM.
